Patent publication US20100093670A1, “Compounds for the treatment of angiogenesis” (priority 2006, published 2010)
“Also recorded” adds a separate entry of the source.

Columns and labels:
Format in all cases: cell-based, human
[1] = test system: HUVEC cells; assay: HUVEC migration, wound healing assay with time-lapse imaging; settings: for inhibition of HUVEC migration to the blank area: 24, 48 and 72 hr after treatment, compared to DMSO
Source text: Using the above described time-lapse culture system, a wound healing assay was used to analyze the effect of Compound 249 and CA4 on HUVEC cells migration. Confluent HUVEC cultures were scraped similarly to make a blank area. Migration of remaining cells under different treatment was imaged at the same time to generate time-lapse image sequences. Time-lapse movies were further analyzed to calculate the number of cells that migrated to the blank area. In FIG. 4, the gray lines show the front line of cells after scraping and the red lines show the front lines of cells after migration at 24, 48 and 72 hr after treatment.

[2] = test system: HUVEC cells; assay: HUVEC cell morphology (shrinkage), time lapse imaging
Protocol: HUVEC cells (ATCC, VA) (passage number 4) were cultured in EGM2 medium (Cambrex, Mass.) on 24-well plates and time lapse imaging was performed in a cell culture system mounted on an inverted microscope supplied with 5% CO2. The temperature was kept at 35° C. Images were taken every 60 sec using 20× objective (FIGS. 1-3) or every 30 min using 2× objective (FIG. 4) for up to 90 hr. FIGS. 1-3 show results from three time points of treatment: 0, 50, 100 min. […] Most shrunken cells were at cell cycle interphase but not mitotic stage, and still moving on the culture surface, as observed in time-lapse movies (data not shown). The shrinking effect caused by Compound 249 (and CA4) is not identical to the apoptotic effect in mitotic cells after microtubule depolymerization.

[3] = test system: VE-cadherin junctions of HUVEC cells; assay: VE-cadherin junctions of HUVEC cells, immunostaining; settings: 24 hrs
Protocol: It was thought that these phenotypic changes might be associated with alterations of endothelial cell junctions. To determine if Compound 249 induced disengagement of HUVEC cell junctions, VE-cadherin junctions of HUVEC cells were examined. HUVEC cells were treated with DMSO or Compound 249 (0.1, 1, or 10 nM) for 24 hrs and fixed for immunostaining. DMSO concentration was 1:100 for all treatment. To boost the immunofluorescence signal, cells were stained with a mixture of two polyclonal anti-human VE-cadherin Abs (1:1 mixed, obtained from Amersham Biosciences, N.J., and Santa Cruz Biotechnology, Calif.) followed by staining with a mixture of fluorescent secondary antibodies. […] Non-DMSO treated cells gave a similar result to those with DMSO treatment (data not shown). With 1 nM Compound 249 treatment, VE-cadherin staining was reduced (red arrow in Compound 249 1 nM) compared to that in DMSO or Compound 249 0.1 nM treatment. […] In addition, the potent effect of Compound 249 on microtubule cytoskeletons can also contribute strongly to the cell-cell junction disruption.

[4] = 1 nM, compared to DMSO treatment

Structure (SMILES) | absolute migrated cell numbers (quantitative analysis, FIG. 5) ([1]; 1 nM) | inhibition of HUVEC migration to the blank area ([1]; 1 nM) | absolute migrated cell numbers (quantitative analysis, FIG. 5) ([1]; 5 nM) | inhibition of HUVEC migration to the blank area ([1]; 5 nM) | HUVEC cell shrinkage / morphological change [2, 4] | HUVEC cell shrinkage / morphological change ([2]; 10 nM) | inhibitory effect on HUVEC migration in vitro (overall) [1] | time after treatment at which the difference in migration inhibition between Compound 249 and CA4 was noticeable (FIG. 6) ([1]; 1 nM) | inhibition of HUVEC migration compared with CA4 ([1]; comparison Compound 249 vs CA4) | time of treatment within which HUVEC cell shrinkage was caused ([2]; 1 nM) | time of treatment within which HUVEC cell shrinkage was induced ([2]; 1 nM) | effect on HUVEC cell morphology (shrinkage) compared with CA4 ([2]; comparison Compound 249 vs CA4) | disengagement of VE-cadherin junctions ([3]; 1 nM) | VE-cadherin staining at cell-cell junctions ([3]; 1 nM, compared to DMSO or 0.1 nM) | VE-cadherin staining at cell-cell junctions ([3]; 10 nM) | disengagement of cell junctions ([3]; 10 nM)
COc1ccc(/C=C\c2cc(OC)c(OC)c(OC)c2)cc1O [CA4, Combretastatin A4, reference compound] | much less of an effect on HUVEC migration | did not block the migration event | similar | significantly blocked migration | did not cause obvious morphological changes | caused a similar change on HUVEC cells | – | – | – | – | – | – | – | – | – | –
COc1ccc(-c2cnoc2-c2cc(OC)c(OC)c(OC)c2)cc1N [Compound 249, 2-methoxy-5-(5-(3,4,5-trimethoxyphenyl)isoxazol-4-yl)aniline] | similar | migration inhibition; also recorded: Inhibits HUVEC Migration; also recorded: significantly blocked migration; also recorded: inhibited HUVEC cell migration | similar | significantly blocked migration | Induces HUVEC Cell Shrinkage; also recorded: caused HUVEC cell shrinkage; also recorded: induced shrinkage of HUVEC cells | – | potent inhibitory effect | ≤ 4 h | stronger effect on both shrinkage and migration than CA4 | ≤ 50 min | ≤ 1 h | stronger effect on both shrinkage and migration than CA4; also recorded: more potent effect on HUVEC cell morphology than CA4 | some of the VE-cadherin junctions were disengaged | reduced | significantly abolished VE-cadherin staining | most of the cell junctions were disengaged
